In patent US8853216B2, “Hydroxylated pyrimidyl cyclopentane as AKT protein kinase inhibitor” (Array BioPharma, Inc., priority 2008, dated 2014) one finds IC50 data, which are given here for 1 compound.

In the assay the target is full-length human recombinant active AKT-1 (Homo sapiens, UniProt P31749). Briefly: AKT-1 Kinase Assay (IMAP fluorescence polarization). Format: biochemical. The settings on record: phosphorylation of fluorescein-labeled Crosstide peptide by AKT-1, 60 minute incubation at ambient temperature. The text has this: The activity of the compound described in the present invention may be determined by the following kinase assay, which measures the phosphorylation of a fluorescently-labeled peptide by full-length human recombinant active AKT-1 by fluorescent polarization using a commercially available IMAP kit.
The assay materials are obtained from an IMAP AKT Assay Bulk Kit, product #R8059, from Molecular Devices, Sunnyvale, Calif. The kit materials include an IMAP Reaction Buffer (5×). The diluted 1×IMAP Reaction Buffer contained 10 mM Tris-HCl, pH 7.2, 10 mM MgCl2, 0.1% BSA, 0.05% NaN3. DTT is routinely added to a final concentration of 1 mM immediately prior to use. Also included is IMAP Binding Buffer (5×), and IMAP Binding Reagent. The Binding Solution is prepared as a 1:400 dilution of IMAP Binding Reagent into 1×IMAP Binding Buffer.
The fluorescein-labeled AKT Substrate (Crosstide) has the sequence (Fl)-GRPRTSSFAEG. A stock solution of 20 μM is made up in 1×IMAP Reaction Buffer. […]
The assay is initiated by the addition of 2.5-μL aliquots of a solution containing 200 nM of fluorescently-labeled peptide substrate and 4 nM AKT-1. […] The reaction is then quenched by the addition of 15 μL of Binding Solution, centrifuged again and incubated for an additional 30 minutes at ambient temperature prior to reading on a Victor 1420 Multilabel HTS Counter configured to measure fluorescence polarization.
A general note: Fluorescence polarisation rises when a labelled molecule tumbles more slowly, as on binding a larger partner.

Sequence of full-length human recombinant active AKT-1 (P31749 whole entry): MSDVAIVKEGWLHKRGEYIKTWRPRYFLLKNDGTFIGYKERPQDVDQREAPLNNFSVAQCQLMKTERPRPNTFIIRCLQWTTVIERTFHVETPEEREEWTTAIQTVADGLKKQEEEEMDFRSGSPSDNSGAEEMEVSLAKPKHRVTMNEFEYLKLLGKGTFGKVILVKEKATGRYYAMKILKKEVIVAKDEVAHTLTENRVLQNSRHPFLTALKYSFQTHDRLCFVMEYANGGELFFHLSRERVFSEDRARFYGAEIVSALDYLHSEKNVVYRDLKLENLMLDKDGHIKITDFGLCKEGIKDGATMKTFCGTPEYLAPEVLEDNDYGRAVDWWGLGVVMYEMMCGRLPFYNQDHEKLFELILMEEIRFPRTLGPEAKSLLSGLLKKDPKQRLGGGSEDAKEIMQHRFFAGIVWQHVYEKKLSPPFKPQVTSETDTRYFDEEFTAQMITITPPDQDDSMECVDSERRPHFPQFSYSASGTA

In general, IC50 refers to the concentration at which inhibition is half-maximal. In the case of `CO[C@H]1CC[C@H](NC[C@@H](C(=O)N2CCN(c3ncnc4c3[C@H](C)C[C@H]4O)CC2)c2ccc(Cl)c(F)c2)CC1` [Example 1, (S)-2-(4-chloro-3-fluorophenyl)-1-(4-((5R,7R)-7-hydroxy-5-methyl-6,7-dihydro-5H-cyclopenta[d]pyrimidin-4-yl)piperazin-1-yl)-3-((1r,4S)-4-methoxycyclohexylamino)propan-1-one], the half-maximal inhibitory concentration (IC50) was less than 500 nM.
